Test results published in patent publication US20210393636A1, “TREATMENT OF CNS AND DEVELOPMENTAL DISORDERS USING HIGH DOSE 5-FORMYL-(6S)-TETRAHYDROFOLATE” (priority 2019, published 2021).

How the values were obtained:
[1] = Folate absorption in serum after single high-dose oral administration of different folates (Example 1); conditions: for 5-FoTHF / THF / Total Uptake / 5-MTHF: 4 mg/kg single oral dose; for 5-MTHF: D- and L-forms
Description: For this study, 4 mg/kg folate was administered as a single dose to 250-300 g male Wistar rats. […] For each form of folate 4 time points of 30 min, 1 h, 2 h and 4 h were evaluated. For each time point 2 rats were used. The folate form dissolved in 0.5 ml buffered saline was administered orally using a blunt needle attached to a 1 ml syringe. The rats were euthanized by CO2 inhalation.
Blood was drawn cardiac puncture, allowed to clot for 30 min, serum separated, diluted in equal volume of 4% ascorbate pH 7.2 and kept frozen at −20 C. Folate forms in the serum was determined by HPLC and the peaks were quantified by comparing to known standards as described below.
Folate standards (5-MTHF, FA, THF and Formyl-THF) and 13C-labeled stable isotope internal standards (13C5-5-MTHF, 13C5-FA and 13C-Formyl-THF) were obtained from Schircks Laboratories (Switzerland). Formic acid, ascorbic acid and dithiothreitol (DTT) were obtained from Fluka and Optima LC-MS grade methanol from Fisher Scientific. Stock standards for each folate metabolite and internal standards were prepared as 1 mmol/L solutions in water containing 2 mg/mL ascorbic acid and stored at −80° C. Microtiter plates used for were purchased from NUNC.
Liquid chromatography electrospray ionization mass spectrometry (LC-ESI-MS/MS) analysis of plasma 5-MTHF, FA, THF, Formyl-THF was performed on a Sciex 5500QTRAP mass spectrometer (Foster City, Calif., USA) coupled with a Shimadzu ultra-high pressure Nexera chromatograph system (Kyoto, Japan). The MS/MS experiments were performed under positive electrospray ionization (+ESI) with multiple-reaction monitoring (MRM) using a Turbolon Spray electrospray source operating at a voltage of 5.5 kV and desolvation temperature of 500° C. The calibration curve was prepared in water containing 2 mg/mL ascorbic acid over a range of 12.5-400 nmol/L for each folate analyte.
Sample preparation involved combining 50 µl of blank, standard, control or sample with 10μ1 62.5 mM dithiothreitol, 20 mg/ml ascorbic acid and 2.5 μM 13C5-5-MTHF, 13C5-FA, 13C-Formyl-THF in 1.5 mL Eppendorf tubes, mixed by vortex and incubated for 10 minutes at room temperature in the dark. Next, samples were deproteinized with 5 volumes of methanol containing 2 mg/ml of ascorbic acid and vortexed and centrifuged at 14800 rpm for 10 minutes. Supernatant was loaded in a 96-well microtiter plate for analysis. The samples were analyzed following injection of 10 μL of extract on a Synergi Hydro 4μ 150×3 mm with a 4×2 mm SecurityGuard column (Phenomenex, Calif., USA) maintained at 40° C. (Phenomenex) and eluted in a gradient with buffer A (100% water with 0.1% formic acid) and buffer B (100% Methanol with 0.1% formic acid). The flow rate was 0.5 mL/min, with a gradient over a total run time of 6 min: 0.0-2.0 min, 0-100% B; 2.5 min, 100% B; 2.6-6.0 min, 0% B.
Total analytical analysis, including column re-equilibration, was 6 minutes. Eluent flow from the column was diverted to waste at the beginning and end of each run and was only directed to the source for the period from 1.5-3.5 minutes. The LC-MS/MS data was acquired and processed using Analyst 1.5.2 software (Sciex).
Values reported include both D- and L-forms.

[2] = Total folates in serum 24 h after oral administration of folate forms (Example 2); format: in vivo, rats; design: Total Folates in Serum (total 5-MTHF D- and L- plus folic acid): unit not given here; conditions: for Total Folates in Serum (total 5-MTHF D- and L- plus folic acid): 4 mg/kg oral, 24 h
Description: (§1) This study evaluated the difference in folate absorption in non-pregnant rats, pregnant rats, pregnant rats injected with a control antibody, and pregnant rats injected with antibody to the folate receptor alpha. Eight (8) rats were assigned to each group for a total of thirty-two (32) rats. Two rats within each group were administered a single oral dose of PGA, 5-methyl-(6S)-THF, folinic acid or 5-formyl-(6S)-THF as a liquid solution and sacrificed at 24-hours to evaluate folate absorption patterns. The total amount of each form of folate administered to each rat was 4 mg/kg.
Serum was withdrawn immediately before the rat was sacrificed. For extraction of folate from serum, an aliquot of the serum was diluted in 3 volumes of phosphate buffer pH 5.5, placed in a boiling water bath for 10 min, cooled, the protein precipitate separated by centrifugation and the clear supernatant was assayed for folate concentration.

[3] = Tissue distribution of folates 24 h after oral administration of folate forms (Example 2); format: in vivo, rats; conditions: for Total 5-MTHF + PGA in Brain: derived from cortex and cerebellum
Description: as §1
Additional analyses were performed in various tissues of the pregnant and non-pregnant rats. For tissues other than serum, each tissue was collected, weighed and stored at −20 C. For the folate assay each tissue was suspended in 3 volumes of phosphate buffer containing 2% ascorbic acid pH 7.4 and homogenized using a polytron probe. An aliquot of this homogenate was diluted 10 fold in PO4 buffer PH 5.5 containing 0.2% ascorbic acid, in a glass tube, sealed and placed in a boiling water bath for 10 min. The tube was cooled to room temperature, precipitate removed by centrifugation and the clear supernatant assayed for folate. Brain concentrations were derived from cortex and cerebellum.

[4] = Tissue distribution of folates 24 h after oral administration of folate forms to rat pups, with and without FR Ab (Example 3); format: in vivo; conditions: for Folate (mean), Cerebellum / Folate (mean), Cerebrum / Folate (mean), Kidney / Folate (mean), Liver: PND 21 rat pups, 4 mg/kg oral, 24 h
Description: To determine tissue distribution of orally administered folate forms in young rat pups and study the effect of folate receptor antibodies on this distribution. PND 21 rat pups weighing about 50 g were administered folate forms orally at a dose of 4 mg/kg. Animals were euthanized after 24 h and tissues collected for analyzing total methylfolate in each tissue to provide a measure of normal distribution.

[5] = non-pregnant rats, without antibody, 4 mg/kg oral, 24 h
[6] = pregnant rats, + Control IgG, 4 mg/kg oral, 24 h
[7] = pregnant rats, + FRAb, 4 mg/kg oral, 24 h
[8] = pregnant rats, w/o IgG, 4 mg/kg oral, 24 h

- serum THF and 5-MTHF compared to folinic acid ([1]; especially at one hour): Much better
- THF generation and total uptake compared to 5-methyl-(6S)-THF administration ([1]; serum, 4 mg/kg oral): much greater
- 5-FoTHF ([1]; serum, 0.5 hr): 68.2 ng/mL
- THF ([1]; serum, 0.5 hr): 22.9 ng/mL
- Total Uptake ([1]; serum, 0.5 hr): 252.6 ng/mL
- 5-MTHF ([1]; serum, 0.5 hr): 161.6 ng/mL
- 5-FoTHF ([1]; serum, 1 hr): 97.3 ng/mL
- THF ([1]; serum, 1 hr): 35.8 ng/mL
- Total Uptake ([1]; serum, 1 hr): 375.0 ng/mL
- 5-MTHF ([1]; serum, 1 hr): 241.9 ng/mL
- 5-FoTHF ([1]; serum, 2 hr): 19.7 ng/mL
- THF ([1]; serum, 2 hr): 9.0 ng/mL
- Total Uptake ([1]; serum, 2 hr): 162.9 ng/mL
- 5-MTHF ([1]; serum, 2 hr): 144.1 ng/mL
- 5-FoTHF ([1]; serum, 4 hr): 7.0 ng/mL
- THF ([1]; serum, 4 hr): 39.1 ng/mL
- Total Uptake ([1]; serum, 4 hr): 216.1 ng/mL
- 5-MTHF ([1]; serum, 4 hr): 173.5 ng/mL
- Total Folates in Serum (total 5-MTHF D- and L- plus folic acid) ([2]; Non-pregnant rats): 27.5
- concentrations of total folates in serum compared to other folate forms ([2]; especially pregnant rats injected with folate receptor antibody): superior concentrations of total folates
- Total Folates in Serum (total 5-MTHF D- and L- plus folic acid) ([2]; pregnant rats, Control Ab + Form): 247.1
- Total Folates in Serum (total 5-MTHF D- and L- plus folic acid) ([2]; pregnant rats, FRAb + Form): 228.8
- Total Folates in Serum (total 5-MTHF D- and L- plus folic acid) ([2]; pregnant rats, Form Only): 88.9
- concentrations of folates in ovary, brain and cerebellum compared to 5-methyl-6S-THF ([3]; non-pregnant rats without folate receptor antibody): much better concentrations of folates
- Total 5-MTHF + PGA in Cerebellum [3, 5]: 8.2
- Total 5-MTHF + PGA in Cortex [3, 5]: 1.5
- Total 5-MTHF + PGA in Kidney [3, 5]: 20.4
- Total 5-MTHF + PGA in Liver [3, 5]: 93.0
- Total 5-MTHF + PGA in Ovary [3, 5]: 9.8
- Total 5-MTHF + PGA in Brain [3, 5]: 4.8
- folate concentrations in placenta and embryo compared to 5-methyl-6S-THF or folinic acid ([3]; pregnant rats without folate receptor antibody): much better folate concentrations
- Total 5-MTHF + PGA in Embryo [3, 6]: 2.8 ng/mg
- Total 5-MTHF + PGA in Kidney [3, 6]: 19.8 ng/mg
- Total 5-MTHF + PGA in Liver [3, 6]: 38.2 ng/mg
- Total 5-MTHF + PGA in Ovary [3, 6]: 7.1 ng/mg
- Total 5-MTHF + PGA in Placenta [3, 6]: 3.3 ng/mg
- Total 5-MTHF + PGA in Brain [3, 6]: 4.8 ng/mg
- Total 5-MTHF + PGA in Embryo [3, 7]: 2.3 ng/mg
- Total 5-MTHF + PGA in Kidney [3, 7]: 14.3 ng/mg
- Total 5-MTHF + PGA in Liver [3, 7]: 39.1 ng/mg
- Total 5-MTHF + PGA in Ovary [3, 7]: 3.2 ng/mg
- Total 5-MTHF + PGA in Placenta [3, 7]: 3.0 ng/mg
- Total 5-MTHF + PGA in Brain [3, 7]: 3.5 ng/mg
- Total 5-MTHF + PGA in Embryo [3, 8]: 7.2 ng/mg
- Total 5-MTHF + PGA in Kidney [3, 8]: 20.2 ng/mg
- Total 5-MTHF + PGA in Liver [3, 8]: 44.8 ng/mg
- Total 5-MTHF + PGA in Ovary [3, 8]: 9.3 ng/mg
- Total 5-MTHF + PGA in Placenta [3, 8]: 9.0 ng/mg
- Total 5-MTHF + PGA in Brain [3, 8]: 2.0 ng/mg
- Folate (mean), Cerebellum ([4]; + FRAb (100 ug IP 24 h prior)): 69.5 ng/mg
- Folate (mean), Cerebrum ([4]; + FRAb (100 ug IP 24 h prior)): 13.2 ng/mg
- Folate (mean), Kidney ([4]; + FRAb (100 ug IP 24 h prior)): 48.7 ng/mg
- Folate (mean), Liver ([4]; + FRAb (100 ug IP 24 h prior)): 133.44 ng/mg
- Folate (mean), Cerebellum ([4]; no FRAb): 93.3 ng/mg
- Folate (mean), Cerebrum ([4]; no FRAb): 15.3 ng/mg
- Folate (mean), Kidney ([4]; no FRAb): 52.1 ng/mg
- Folate (mean), Liver ([4]; no FRAb): 80.0 ng/mg
- change of folates in the brain on antibody administration ([4]; antibody-treated pups vs pups without antibody): The opposite is observed
- folate concentrations in cerebellum and cerebrum compared to 5-methyl-6S-THF ([4]; rat pups with and without the antibody): much higher folate concentrations
SMILES: Nc1nc2c(c(=O)[nH]1)N(C=O)[C@@H](CNc1ccc(C(=O)N[C@@H](CCC(=O)O)C(=O)O)cc1)CN2 [5-formyl-(6S)-tetrahydrofolate]
